Measurements published in patent US7960393B2, “Pyrimidine derivatives useful for the treatment of diseases mediated by CRTH2” (Actimis Pharmaceuticals, Inc., priority 2002, dated 2011).

What was measured:
human CRTH2 = biological target: T1, human CRTH2 (Homo sapiens, UniProt Q9Y5Y4); assay: Measurement of Ca2+ mobilization in the human CRTH2-transfected L1.2 cell line (Assay 1); type: cell-based; conditions: PGD2-induced Ca2+ mobilization in CRTH2-transfected L1.2 cells; compounds as yielded by solid phase synthesis, purity about 40 to 90%; read-out: Activity class
T1 construct: expressed in transfected cells; host or cells: L1.2 cells, pEAK expression vector, puromycin-selected
T1 sequence (Q9Y5Y4 1-395): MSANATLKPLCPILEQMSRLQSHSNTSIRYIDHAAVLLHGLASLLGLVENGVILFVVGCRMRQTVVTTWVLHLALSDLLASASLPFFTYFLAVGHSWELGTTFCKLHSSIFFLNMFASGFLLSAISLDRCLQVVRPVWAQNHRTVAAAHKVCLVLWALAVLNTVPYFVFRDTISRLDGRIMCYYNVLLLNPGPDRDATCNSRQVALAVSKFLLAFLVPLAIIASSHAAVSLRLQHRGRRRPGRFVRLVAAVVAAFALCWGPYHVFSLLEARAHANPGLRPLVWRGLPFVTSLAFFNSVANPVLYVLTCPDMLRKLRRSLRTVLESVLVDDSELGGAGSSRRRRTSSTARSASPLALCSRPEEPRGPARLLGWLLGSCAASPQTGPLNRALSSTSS
Protocol: Human CRTH2 cDNA was amplified from human eosinophil cDNA with gene specific primers containing restriction sites for cloning into pEAK vector (Edge Bio Systems). The human CRTH2 cDNA was cloned into the mammalian expression vector pEAK. This expression plasmid (40 μg) was transfected into L1.2 cells, at a cell density of 1×10^7 cells/500 μl, by using electroporation apparatus (Gene Pulser II, BioRad) at 250V/1,000 μF. One day after the transfection, puromycin (1 μg/ml, Sigma) was added into the cell culture plates. Two weeks after the transfection, grown cells were picked up for further growth.
[Measurement of Ca^2+ Mobilization in the Human CRTH2-Transfected L1.2 Cell Line] (Assay 1)
Ca^2+ loading buffer was prepared by mixing 5 μl of Fluo-3AM (2 mM in DMSO, final 1 μM, Molecular Probes) and 10 μl of pluronic F-127 (Molecular Probes) and diluting the resulting mixture in 10 ml of Ca^2+ assay buffer (20 mM HEPES pH 7.6, 0.1% BSA, 1 mM probenecid, Hanks' solution). The CRTH2 transfected cells which were prepared in Example 1 were washed with PBS, resuspended in Ca^2+ loading buffer at 1×10^7 cells/ml, and incubated for 60 min at room temperature. After incubation, cells were washed and resuspended in Ca^2+ assay buffer, then dispensed into transparent-bottom 96-well plates (#3631, Costar) at 2×10^5 cells/well. Cells were incubated with various concentrations of test compound for 5 minutes at room temperature. The emitted 480 nm fluorescence was measured on FDSS6000, a Ca^2+-measurement apparatus (Hamamatsu Photonics, Hamamatsu, Japan).
Assay results in Assay 1 are shown in Examples and tables of the Examples below. The data corresponds to the compounds as yielded by solid phase synthesis and thus to levels of purity of about 40 to 90%. For practical reasons, the compounds are grouped in four classes of activity as follows: IC50=A(< or =)10 nM<B(< or =)100 nM<C(< or =)500 nM<D

IC50 (human CRTH2) [nM]	melting point	Compound
< 10	115 °C	COc1c(C)cc(C(=O)Nc2ccc(Cc3nc(Cl)c(CC(=O)O)c(N4CCCC4)n3)cc2)cc1C [Example 1-59]
< 10	151 to 154 °C	CC(c1ccc(NC(=O)c2ccc(C(F)(F)F)cc2)cc1)c1ncc(CC(=O)O)c(N(C)C)n1 (centres unmarked) [Example 2-22]
< 10	217 °C	O=C(O)Cc1c(Cl)nc(Cc2ccc(NC(=O)c3ccc(-n4cccc4)cc3)cc2)nc1N1CCCC1 [Example 1-57]
< 10	137 to 140 °C	CC(c1ccc(NC(=O)c2ccc(Cl)c(Cl)c2)cc1)c1ncc(CC(=O)O)c(N(C)C)n1 (centres unmarked) [Example 2-21]
100 to 500	131 to 133 °C	CN(C)c1nc(Cc2ccc(NC(=O)c3ccc4ccccc4n3)cc2)nc(N2CCCC2)c1CC(=O)O [Example 7-9]
< 10	> 139 °C	CN(CC(=O)NC1CCCC1)c1nc(Cc2ccc(NC(=O)CCc3ccccc3)cc2)nc(Cl)c1CC(=O)O [Example 1-14]
> 500	295 °C	CN(C)c1nc(Cc2ccccc2NC(=O)c2ccc3ccccc3c2)nc(Cl)c1CC(=O)O [Example 1-50]
> 500	120 to 123 °C	CCc1nc(Cc2ccc(NC(=O)OCc3ccccc3)cc2)nc(N(C)C)c1CC(=O)O [Example 9-6]
< 10	177 °C	CN(CC(=O)N1CCCC1)c1nc(Cc2ccc(NC(=O)c3ccc4ccccc4c3)cc2)nc(Cl)c1CC(=O)O [Example 1-3]
> 500	172 to 175 °C	CN(C)c1nc(Cc2ccc(NC(=O)COc3ccccc3)cc2)nc(N2CCOCC2)c1CC(=O)O [Example 7-26]
< 10	151 to 153 °C	O=C(O)Cc1cnc(Cc2ccc(NC(=O)c3ccc(Cl)cc3)cc2)nc1N1CCCC1 [Example 2-28]
10 to 100	> 123 °C	CN(CC(=O)NC1CCCC1)c1nc(Cc2ccc(NC(=O)Cc3ccc(Oc4ccccc4)cc3)cc2)nc(Cl)c1CC(=O)O [Example 1-31]
< 10	> 160 °C	CN(C)c1nc(Cc2ccc(NC(=O)/C=C/c3ccccc3)cc2)nc(Cl)c1CC(=O)O [Example 1-33]
100 to 500	130 to 133 °C	CCCC(=O)Nc1ccc(Cc2ncc(CC(=O)O)c(N3CCCC3)n2)cc1 [Example 2-36]
< 10	> 118 °C	CN(CC(=O)NC1CCCC1)c1nc(Cc2ccc(NC(=O)Cc3cccc(Oc4ccccc4)c3)cc2)nc(Cl)c1CC(=O)O [Example 1-30]
–	210 °C	CN(C)c1nc(Cc2ccc(NC(=O)c3ccc4ccccc4c3)cc2)ncc1CC(=O)O [Example 2-1, {4-(Dimethylamino)-2-[4-(2-naphthoylamino)benzyl]pyrimidin-5-yl}acetic acid]
> 500	116 °C	CN(CC(=O)NC1CCCC1)c1nc(Cc2ccc(NS(=O)(=O)c3ccc4ccccc4c3)cc2)nc(Cl)c1CC(=O)O [Example 1-23]
< 10	140 °C	CN(C)c1nc(Cc2ccc(NC(=O)c3ccc(Cl)c(Cl)c3)cc2)ncc1CC(=O)O [Example 2-8]
< 10	91 to 93 °C	CN(C)c1nc(Cc2ccc(NC(=O)OCc3ccc(C(F)(F)F)cc3)cc2)ncc1CC(=O)O [Example 9-8]
< 10	100 °C	CN(C)c1nc(Cc2ccc(NC(=O)OCc3ccccc3)cc2)nc(N(C)C)c1CC(=O)O [Example 9-7]
100 to 500	> 120 °C	CN(CC(=O)NC1CCCC1)c1nc(Cc2ccc(NC(=O)Cc3ccc4c(c3)OCO4)cc2)nc(Cl)c1CC(=O)O [Example 1-29]
< 10	131 to 134 °C	CC(c1ccc(NC(=O)c2ccc(Cl)cc2)cc1)c1ncc(CC(=O)O)c(N(C)C)n1 (centres unmarked) [Example 2-25]

IC50 (human CRTH2) [nM]	melting point	Compound
< 10	118 °C	CN(CC(=O)NC1CCCC1)c1nc(Cc2ccc(NC(=O)c3cc4ccccc4o3)cc2)nc(Cl)c1CC(=O)O [Example 1-25]
10 to 100	140 to 142 °C	CN(C)c1nc(Cc2ccc(NC(=O)c3ccc(Cl)cc3)cc2)nc(N2CCCC2)c1CC(=O)O [Example 7-29]
< 10	192 to 195 °C (dec.)	COc1ccc(/C=C/C(=O)Nc2ccc(Cc3nc(N(C)C)c(CC(=O)O)c(N4CCOCC4)n3)cc2)cc1 [Example 7-25]
< 10	181 °C	CC(C)NC(=O)CN(C)c1nc(Cc2ccc(NC(=O)c3ccc4ccccc4c3)cc2)nc(Cl)c1CC(=O)O [Example 1-7]
10 to 100	> 140 °C	CN(CC(=O)NC1CCCC1)c1nc(Cc2ccc(NC(=O)c3ccccc3)cc2)nc(Cl)c1CC(=O)O [Example 1-9]
> 500	132 to 134 °C	CN(C)c1nc(Cc2ccc(NC(=O)c3ccccc3-c3ccccc3)cc2)nc(N2CCCC2)c1CC(=O)O [Example 7-14]
< 10	114 to 117 °C	CC(c1ccc(NC(=O)c2ccc(F)cc2)cc1)c1ncc(CC(=O)O)c(N(C)C)n1 (centres unmarked) [Example 2-26]
< 10	> 108 °C	CN(C)c1nc(Cc2ccc(NC(=O)c3cccc(Cl)c3)cc2)nc(Cl)c1CC(=O)O [Example 1-47]
< 10	125 to 128 °C	COc1ccccc1/C=C/C(=O)Nc1ccc(Cc2nc(N(C)C)c(CC(=O)O)c(N3CCOCC3)n2)cc1 [Example 7-27]
10 to 100	136 °C	CN(CC(=O)NC1CCCC1)c1nc(Cc2ccc(NC(=O)c3cccc4ccccc34)cc2)nc(Cl)c1CC(=O)O [Example 1-22]
10 to 100	> 116 °C	Cc1ccc(CC(=O)Nc2ccc(Cc3nc(Cl)c(CC(=O)O)c(N(C)CC(=O)NC4CCCC4)n3)cc2)cc1 [Example 1-15]
< 10	134 °C	CN(CC(=O)NC1CCCCC1)c1nc(Cc2ccc(NC(=O)c3ccc4ccccc4c3)cc2)nc(Cl)c1CC(=O)O [Example 1-8]
< 10	125 °C	Cc1ccc(C(=O)Nc2ccc(Cc3nc(Cl)c(CC(=O)O)c(N(C)CC(=O)NC4CCCC4)n3)cc2)cc1 [Example 1-21]
< 10	118 °C	COc1ccc(C(=O)Nc2ccc(Cc3nc(Cl)c(CC(=O)O)c(N4CCCC4)n3)cc2)cc1[N+](=O)[O-] [Example 1-58]
100 to 500	> 100 °C	CCCCCC(=O)Nc1ccc(Cc2nc(Cl)c(CC(=O)O)c(N(C)CC(=O)NC3CCCC3)n2)cc1 [Example 1-12]
< 10	156 to 158 °C (dec.)	O=C(O)Cc1cnc(Cc2ccc(NC(=O)c3ccc(C(F)(F)F)cc3)cc2)nc1N1CCCC1 [Example 2-30]
< 10	144 °C	COCCN(C)c1nc(Cc2ccc(NC(=O)c3ccc4ccccc4c3)cc2)nc(Cl)c1CC(=O)O [Example 3-5]
10 to 100	> 95 °C	COc1ccc(C(=O)Nc2ccc(Cc3nc(Cl)c(CC(=O)O)c(N(C)C)n3)cc2)cc1OC [Example 1-38]
< 10	129 °C	O=C(O)Cc1c(Cl)nc(Cc2ccc(NC(=O)c3ccc(Cl)c(Cl)c3)cc2)nc1N1CCCC1 [Example 1-61]
< 10	160 °C	O=C(O)Cc1c(Cl)nc(Cc2ccc(NC(=O)c3ccc(Oc4ccccc4)cc3)cc2)nc1N1CCCC1 [Example 1-55]
100 to 500	> 119 °C	CN(CC(=O)NC1CCCC1)c1nc(Cc2ccc(NC(=O)c3ccco3)cc2)nc(Cl)c1CC(=O)O [Example 1-11]
–	189 to 190 °C	CN(C)c1nc(Cc2ccc(NC(=O)c3ccc4ccccc4c3)cc2)nc(Cl)c1CC(N)=O [Example 11, N-(4-{[5-(2-Amino-2-oxoethyl)-4-chloro-6-(dimethylamino)pyrimidin-2-yl]methyl}phenyl)-2-naphthamide]
